Experiments:
[1] = Open-label maximal use pharmacokinetic study, topical ALA under occlusion (another experiment)
Procedure: (§1) Two open-label, pharmacokinetic studies were carried out to evaluate the potential for systemic exposure of ALA and ALA and protoporphyrin IX (PpIX) when applied topically under occlusion, in a maximal use setting in patients with multiple actinic keratoses (AK) lesions on the upper extremities. In accordance with at least one embodiment, a 20% w/w topical composition of 5-aminolevulinic acid (ALA) was directly applied topically via an applicator to the upper extremities of the patients followed by covering with an occlusive, polyethylene film for a 3 hour incubation period. Light treatment was administered after the incubation period. Each subject received 10 J/cm^2 of visible blue light delivered at 10 mW/cm^2.
(§2) In the first of the two studies, a total of 29 participants were enrolled. The participants were males and non-pregnant females, aged 18 years or older. […] The subjects received one treatment and were followed until week four after treatment. The treatment area, designated at baseline for the duration of the study, was the extensor surface of both distal upper extremities, as defined in the protocol (i.e., the dorsal hands/forearms). In the second of the two studies, a total of 14 participants were enrolled. Males and non-pregnant females, aged 18 years or older, with at least six Grade 1 or Grade 2 AK lesions on one upper extremity treatment area and at least 12 Grade 1 or Grade 2 AK lesions on the other upper extremity treatment area, were eligible for the study.

clinical [2] = details: both, human, plasma
Procedure: as §1, §2
(§3) The term “Cmax,” as used herein refers to maximum observed plasma concentrations based on actual values measured following study medication application.

actinic keratoses = test: Randomized vehicle-controlled photodynamic therapy study, ALA with LDPE occlusion and blue light; assay type: in vivo, human
From the text: The actinic keratoses were present on the upper extremities, more specifically, on the dorsal surface of the hands and/or the forearm area between the elbow and the base of the fingers. Subjects ranged from 45 to 90 years of age (mean 68 years) and 90% had Fitzpatrick Skin Type I, II or III. Subjects were randomized to treatment in a 1:1 ratio. ALA was applied to lesions on the dorsal surface of one hand or the forearm for each subject, and the dorsal surface of the hand or the forearm was then occluded with low density polyethylene barrier for three hours. Following removal of the low density polyethylene barrier, a 10 J/cm^2 dose of blue light was delivered at 10 mW/cm^2, with treatment repeated after 8 weeks if any lesion(s) remained in the treatment area.
The recurrence rate corresponds to the percentage of subjects with at least one recurrent lesion during the 12 month follow up period following the evaluation at twelve weeks who had previously achieved complete clearance at twelve weeks following treatment.

Solubility in water = assay type: physicochemical
[3] = Open-label maximal use pharmacokinetic study, topical ALA under occlusion (first study)
Procedure: as §1, §2, §3

clinical [4] = details: both, human, plasma, topical or ocular, 354 mg
Procedure: as §1, §2

[5] = following a baseline correction
[6] = topical, 3 hour occlusion, not baseline corrected

With `Cl.NCC(=O)CCC(=O)O` [ALA, 5-amino-4-oxopentanoic acid hydrochloride] the “ALA geometric mean maximum plasma concentration” value [1, 5] was 39 ng/mL, the “time of maximum plasma concentration (median)” value (shortened to “time”) [1, 5] was 2 h and the “time” value ([1]; not baseline corrected) was 2 h. The “geometric mean maximum plasma concentration” value ([1]; topical, not baseline corrected) was “about 61 ng/ml”, the AUC(0-t) (clinical [2]; topical) was 282 ng·h/mL and the AUC(0-t) (clinical [2]; topical or ocular) was 577 ng·h/mL. For the same compound, the Cmax (clinical [2]; topical or ocular, 354 mg) was under 110 ng/mL, the “complete clearance (subjects with resolution of the actinic keratoses)” value (actinic keratoses; twelve weeks after initial treatment, 3 h LDPE occlusion, 10 J/cm^2 blue light, 42 out of 135 subjects) was 31% and the recurrence rate (actinic keratoses; twelve-month follow-up of subjects with complete clearance at twelve weeks) was 58%. For the same compound, the solubility in water (Solubility in water) was “highly soluble”, the “ALA geometric mean maximum plasma concentration” value [3, 5] was 80 ng/mL and the “time” value [3, 5] was 2 h. For the same compound, the “geometric mean maximum plasma concentration” value [3, 6] was “about 98 ng/mL”, the “time” value [3, 6] was 2 h and the bioavailability (clinical [4]) was about 1%.
